# Data as given in patent EP0495091B1 (Metabasis Therapeutics Inc., priority 1990, dated 1992).
# Where “and” joins values, the source holds several entries; their conditions need not be identical. Equal values may be shown once. Read-outs that look alike come from different tables or passages of the source.
# Key:
# Isolated rat hearts = assay: Improved functional recovery in isolated hearts (Langendorff, post-ischemic LVDP); settings: 30 min ischemia, 30 min reperfusion, number in brackets = hearts
# Experimental: Isolated rat hearts were cannulated via the ascending aorta and attached to a perfusion apparatus according to the method of Langendorff. The hearts were perfused at a constant pressure of 100 cm of H2O with a modified Krebs-Henseleit buffer (pH 7.4) at 37°C. As a measure of heart function, left ventricular developed pressure (LVDP) was continuously monitored. Following equilibration of the hearts for a period of 30 min., the hearts were subjected to reduced flow i.e. ischemia, by reducing the pressure to 10 cm of H2O for 30 min. Flow was then restored by returning the pressure to its original level (100 cm of H2O) for a further 30 min.
# [1] = test system: longitudinal muscle from the guinea pig ileum; assay: Inhibition of stimulated contraction in isolated ileum
# Experimental: Parallel platinum electrodes were used to deliver electrical current at 1 minute intervals at a voltage adequate to induce contraction of 90% of maximal.
# [2] = test system: coronary endothelial cells; assay: Inhibition of adenosine utilization in cell culture; format: cell-based; settings: for inhibition at 5 µM / inhibition at 50 µM: Endothelial cell, read-out: Inhibition of Adenosine Utilization (%)
# Experimental: Inhibition of adenosine utilization was determined by measuring the concentration of extracellular adenosine by scintillation counting following separation by thin layer chromatography (TLC).
# [3] = biological target: T1, NBTI-specific adenosine transport site (Homo sapiens, UniProt Q99808); assay: [3H]-NBTI binding assay; settings: 50% displacement of bound [3H]-NBTI (0.5 nM); neuronal membrane protein, 30 minutes, pH 7.4, room temperature; read-out: ED50 (the source's name)
# T1 construct: incubated for 30 minutes with 0.5 mg neuronal membrane protein together with 0.5 nM [^3H]-NBTI; from tissue
# T1 sequence (Q99808 1-456): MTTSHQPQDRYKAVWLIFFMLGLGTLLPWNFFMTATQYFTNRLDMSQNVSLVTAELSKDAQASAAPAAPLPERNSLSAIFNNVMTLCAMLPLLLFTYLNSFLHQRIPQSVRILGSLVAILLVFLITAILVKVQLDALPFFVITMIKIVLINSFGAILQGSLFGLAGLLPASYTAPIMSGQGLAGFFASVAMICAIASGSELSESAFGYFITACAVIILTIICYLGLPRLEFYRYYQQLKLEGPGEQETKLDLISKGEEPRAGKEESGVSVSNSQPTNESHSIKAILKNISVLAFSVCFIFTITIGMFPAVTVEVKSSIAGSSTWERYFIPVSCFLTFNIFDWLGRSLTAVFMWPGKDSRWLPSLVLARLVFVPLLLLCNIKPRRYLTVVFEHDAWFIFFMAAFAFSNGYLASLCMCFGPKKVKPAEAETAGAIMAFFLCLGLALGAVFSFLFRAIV
# Experimental: Increasing concentrations of the test compounds were incubated for 30 minutes with 0.5 mg neuronal membrane protein together with 0.5 nM [^3H]-NBTI in a Tris buffer (pH 7.4) at room temperature. The assays were quenched and membranes collected by rapid filtration. Filters were then solubilized and radioactivity determined by scintillation counting.
# [4] = test system: platelet aggregation in human whole blood; assay: Inhibition of platelet aggregation in human whole blood; format: cell-based; settings: 10 minutes at 37°C, 10 µM adenosine added 5 minutes before, ADP (6-25 µM) induced, impedance technique
# Experimental: Whole blood was drawn from healthy donors and collected in 0.1 vol. of sodium citrate to prevent coagulation. Platelet aggregation was measured by the impedance technique using a Whole Blood Aggregometer.
# [5] = Oral bioavailability and half-life in fasted adult beagles; settings: dog, in vivo; for bioavailability / half-life: fasted adult beagles; for bioavailability: 10 mg/kg IV bolus and 20 mg/kg solution via stomach tube, read-out: Absolute Oral Bioavailability %
# Experimental: Heparinized blood and urine were collected at selected intervals over 24 hours. Each sample was chilled, centrifuged at 4°C and frozen prior to HPLC analysis.
# Anesthetized male dogs = format: in vivo; settings: n = 6
# Experimental: Anesthetized male dogs were instrumented to measure regional myocardial wall thickening during right atrial pacing in the presence of a stenosis of the left anterior descending artery (Young & Mullane Am. J. Physiol. in press (1991)). In Table XIA, the effects on wall thickening and arterial pressure of six repeated episodes of pacing in animals treated with a continuous IV infusion of 50 µg/kg/min of the test compound administered post-pace #1 are compared with saline-treated control animals. […]
# ischemic rat hearts = assay: Rat heart ischemia model, tissue adenosine levels; format: in vivo, rats; settings: intraperitoneal injection, hearts excised after 60 minutes, incubated 60 minutes at 37°C, HPLC
# Experimental: Male rats were injected intraperitonealy with either the AICA riboside analog, AICA riboside or saline, as a control. After 60 minutes, the hearts were excised and incubated at 37°C for a further 60 minutes. Tissue extracts were prepared and analyzed for adenosine by high performance liquid chromatography (HPLC). […]
# male Mongolian gerbils = assay: Experimental stroke model (gerbil brain ischemia); format: in vivo; settings: pretreatment with 500 mg/kg; bilateral carotid occlusion for 5 minutes; histology after seven days
# Experimental: In this test, male Mongolian gerbils were anesthetized with 2-3% halothane in N20:02 and the common carotid arteries exposed. Ischemia was then induced by bilateral occlusion of both common carotid arteries for 5 minutes. Seven days following the ischemic insult, brains were removed and processed for histology.
# [6] = test system: coronary endothelial cells; assay: Adenosine release from isolated cells under net ATP breakdown; format: cell-based; settings: 50 µM test compound
# Experimental: In this experimental model the cells were treated with 50 µM of the test compound and incubated for 16 hours at 37°C. Cells were then washed with phosphate-buffered saline and resuspended in standard culture medium containing no glucose (to inhibit glycolysis), 50 µM antimycin A (to inhibit oxidative phosphorylation) and 20 µM deoxycoformycin (to inhibit adenosine utilization by adenosine deaminase). This treatment was designed to simulate ischemic condition by inducing net ATP breakdown. Media was then processed for HPLC.
# [7] = Cavia porcellus, concentration which inhibited electrically stimulated contraction by 50%, read-out: IC50
# [8] = concentration which inhibited electrically stimulated contraction by 50%, read-out: IC50
# [9] = 5 µM test compound, 1 µM [3H] adenosine, 15 minutes
# [10] = 50 µM test compound, 1 µM [3H] adenosine, 15 minutes
structure (smiles),measurement,setting,value
"Nc1c(C(=O)NCc2ccc(Cl)cc2)ncn1[C@@H]1O[C@H](CO)[C@@H](O)[C@H]1O [Compound No. 29, 5-amino-1-β-D-ribofuranosylimidazole-4-N-[(4-Chlorophenyl)methyl]carboxamide]",Function Recovery % Baseline LVDP (% of hearts),Isolated rat hearts; 1 µM in perfusion buffer,76.7±2.9 (7) %
same,IC50,[1]; Cavia porcellus,60 µM
same,inhibition at 5 µM,[2],41 ± 11%
same,inhibition at 50 µM,[2],67 ± 8%
same,EC50,[3],100 µM
same,IC50,"[4]; Homo sapiens, Platelet",90 µM
"CCCCO[C@@H]1[C@H](O)[C@@H](CO)O[C@H]1n1cnc(C(N)=O)c1N [Compound No. 32, 5-amino-1-(2-O-n-butyl-β-D-ribofuranosyl) imidazole-4-carboxamide]",IC50,[1]; [7],100 µM
same,IC50,"[4]; Homo sapiens, Platelet",350 µM
"Nc1c(C(=O)NCc2ccc([N+](=O)[O-])cc2)ncn1[C@@H]1O[C@H](CO)[C@@H](O)[C@H]1O [Compound No. 23, 5-Amino-1-β-D-ribofuranosyl-imidazole-4-N-[(4-nitrophenyl)methyl]carboxamide]",Function Recovery % Baseline LVDP (% of hearts),Isolated rat hearts; 1 µM in perfusion buffer,79.0±2.3 (6) %
same,IC50,[1]; Cavia porcellus,3 µM
same,inhibition at 5 µM,[2],27 ± 4%
same,inhibition at 50 µM,[2],63 ± 2%
same,EC50,[3],3 µM
same,IC50,"[4]; Homo sapiens, Platelet",38 µM
"Cl.NC[C@H]1O[C@@H](n2cnc(C(=O)NCc3ccc(Cl)cc3)c2N)[C@H](O)[C@@H]1O [Compound No. 53, 5-Amino-1-(5-amino-5-deoxy-β-D-ribofuranosyl)imidazole-4-N-[(4-chlorophenyl)methyl]carboxamide Hydrochloride]",Function Recovery % Baseline LVDP (% of hearts),Isolated rat hearts; 5 µM in perfusion buffer,85.6±1.8 (10) %
same,IC50,[1]; [8],70 µM
same,Inhibition of Adenosine Utilization (%),[2]; [9],34 ± 4%
same,Inhibition of Adenosine Utilization (%),[2]; [10],58 ± 2%
same,EC50,[3],~100 µM
same,IC50,[4],150 µM
same,Half Life,[5],5.61 h
same,Absolute Oral Bioavailability %,[5]; po,53 (1-468) 32%
same,% of NON-ISCHEMIC WALL THICKENING,Anesthetized male dogs; Pace # 1 (infusion started post-pace #1),49.5 ± 6.5%
same,% of NON-ISCHEMIC WALL THICKENING,"Anesthetized male dogs; Pace # 2, continuous IV infusion of 50 µg/kg/min",46.7 ± 7.0%
same,% of NON-ISCHEMIC WALL THICKENING,"Anesthetized male dogs; Pace # 3, continuous IV infusion of 50 µg/kg/min",54.2 ± 9.4 %
same,% of NON-ISCHEMIC WALL THICKENING,"Anesthetized male dogs; Pace # 4, continuous IV infusion of 50 µg/kg/min",48.1 ± 7.6 %
same,% of NON-ISCHEMIC WALL THICKENING,"Anesthetized male dogs; Pace # 5, continuous IV infusion of 50 µg/kg/min",47.5 ± 8.2 %
same,% of NON-ISCHEMIC WALL THICKENING,"Anesthetized male dogs; Pace # 6, continuous IV infusion of 50 µg/kg/min",42.1 ± 7.0 %
"NC[C@H]1O[C@@H](n2cnc(C(N)=O)c2N)[C@H](O)[C@@H]1O [Compound No. 21, 5'-Amino-5'-deoxy-AICA-riboside]",Function Recovery % Baseline LVDP (% of hearts),Isolated rat hearts; 1 µM in perfusion buffer,77.0±4.4 (10) %
same,Function Recovery % Baseline LVDP (% of hearts),Isolated rat hearts; 5 µM in perfusion buffer,81.0±3.2 (8) %
same,IC50,[1]; [7],800 µM
same,bioavailability,[5]; po,71%
same,half-life,[5],1.3 h
"Nc1c(C(=O)NC2CC2)ncn1[C@@H]1O[C@H](CO)[C@@H](O)[C@H]1O [Compound No. 12, 5-Amino-1-beta-D-ribofuranosylimidazole-4-N-(cyclopropyl)carboxamide]",IC50,[1]; [8],400 µM
same,Tissue Adenosine Levels (% Increase vs. Saline),ischemic rat hearts,29%
"Nc1c(C(=O)NC2CCCC2)ncn1[C@@H]1O[C@H](CO)[C@@H](O)[C@H]1O [Compound No. 10, 5-Amino-1-beta-D-ribofuranosylimidazole-4-N-(cyclopentyl)carboxamide]",Function Recovery % Baseline LVDP (% of hearts),Isolated rat hearts; 5 µM in perfusion buffer,83.7±0.7 (6) %
same,Function Recovery % Baseline LVDP (% of hearts),Isolated rat hearts; 20 µM in perfusion buffer,84.5±3.5 (2) %
same,Tissue Adenosine Levels (% Increase vs. Saline),ischemic rat hearts; listed as 10 (1-186),79% and 68%
same,EC50,[3],350 µM
same,effect in a gerbil model of brain ischemia (hippocampal pyramidal cell survival),male Mongolian gerbils,protective effects
"Nc1c(C(=O)NN2CCCCC2)ncn1[C@@H]1O[C@H](CO)[C@@H](O)[C@H]1O [Compound No. 36, 5-amino-4-(1-piperidinocarbamoyl)-1-β-D-ribofuranosylimidazole]",Tissue Adenosine Levels (% Increase vs. Saline),ischemic rat hearts,34%
"NC(=O)c1nc(S)n([C@@H]2O[C@H](CO)[C@@H](O)[C@H]2O)c1N [Compound No. 27, 5-amino-2-thio-1-β-D-ribofuranosyl imidazole-4-carboxamide]",Function Recovery % Baseline LVDP (% of hearts),Isolated rat hearts; 5 µM in perfusion buffer,74.6±3.7 (7) %
same,IC50,[1]; Cavia porcellus,500 µM
same,EC50,[3],344 µM
same,IC50,"[4]; Homo sapiens, Platelet",950 µM
"NC(=O)c1ncn([C@@H]2O[C@H](CO)[C@@H](O)[C@H]2O)c1N [Compound No. 1, 5-amino-1-beta-D-ribofuranosylimidazole-4-carboxamide, reference compound]",Function Recovery % Baseline LVDP (% of hearts),Isolated rat hearts; 5 µM in perfusion buffer,64.2±1.5 (6) %
same,Function Recovery % Baseline LVDP (% of hearts),Isolated rat hearts; 20 µM in perfusion buffer,79.4±1.3 (34) %
same,IC50,[1]; [7],> 1000 µM
same,Tissue Adenosine Levels (% Increase vs. Saline),ischemic rat hearts,30%
same,inhibition at 5 µM,[2]; [9],5 ± 2%
same,inhibition at 50 µM,[2]; [10],10 ± 1%
same,EC50,[3],> 1000 µM
same,Extracellular Adenosine Levels,"[6]; 16 hours at 37°C, then no glucose, antimycin A, deoxycoformycin",1.64 ± 0.12 µM
same,Extracellular Adenosine Increase (%),"[6]; 16 hours, increase versus control",15.5%
same,IC50,"[4]; Homo sapiens, Platelet",2700 µM
same,bioavailability,"[5]; beagle, oral",8%
same,half-life,[5]; beagle,0.35 h
"NC(=O)c1nc(Sc2ccccc2)n([C@@H]2O[C@H](CO)[C@@H](O)[C@H]2O)c1N [Compound No. 43, 5-Amino-2-thiophenyl-1-β-D-ribofuranosylmidazole-4-carboxamide]",IC50,[1]; Cavia porcellus,200 µM
same,EC50,[3],71 µM
same,IC50,"[4]; Homo sapiens, Platelet",620 µM
"Nc1c(C(=O)NCc2ccccc2)ncn1[C@@H]1O[C@H](CO)[C@@H](O)[C@H]1O [Compound No. 11, 5-Amino-1-beta-D-ribofuranosylimidazole-4-N-(benzyl)carboxamide]",Function Recovery % Baseline LVDP (% of hearts),Isolated rat hearts; 5 µM in perfusion buffer,77.2±5.8 (7) %
same,Function Recovery % Baseline LVDP (% of hearts),Isolated rat hearts; 20 µM in perfusion buffer,85.7±6.2 (3) %
same,IC50,[1]; [8],200 µM
same,Tissue Adenosine Levels (% Increase vs. Saline),ischemic rat hearts; listed as 11 (1-226),53% and 45%
same,effect in a gerbil model of brain ischemia (hippocampal pyramidal cell survival),male Mongolian gerbils,protective effects
